Assay results taken from patent publication US9169279B2, “Crystallization method and bioavailability” (THAR PHARMACEUTICALS, INC., priority 2009, dated 2015).

Experiments:
[1] = room temperature
[2] = Dog PK study: zoledronic acid in serum after IV or oral capsule dosing, enteric or non-enteric coated, with or without excess coformer (LC/MS/MS); format: in vivo, Beagle dogs; settings: beagle, po, 56 mg, Leg 7, 56.0 mg, enteric coated capsule, PO, read-out: Average serum concentration of 5 dogs
Text: This can be attributed to the fact that both animals have historically been used in the safety evaluation and PK screening studies and are recommended by appropriate regulatory agencies. […] Additional tests included ID administration in rats and administration of enteric coated capsules in dogs.
USA. Some animals have surgical catheters (jugular vein and intraduodenum) were implanted to the animals prior to the studies. Beagle dogs from Marshall Farms, N.Y., USA, weighing from (9-12 kg) were used in the studies presented herein. Surgical catheters (jugular vein) were implanted prior to the studies.
The dose volume of each dog was adjusted based upon the average weight of the dog. • ii. […]
Blood samples were placed without the use of an anticoagulant and allowed to sit at room temperature for approximately 30 minutes. Samples were then centrifuged at a temperature of 4° C., at a speed of 13,000 rpm, for 5 minutes. Serum was collected and split into two aliquots and stored frozen (−80° C.) until analysis.
In this study, capsules of particulate materials (zoledronic:DL-lysine:water complex and excess pure DL-lysine).

SMILES: O.O=P(O)(O)C(O)(Cn1ccnc1)P(=O)(O)O [ZA monohydrate]
- Aqueous solubility, Conc. mg/mL [1]: 1.57 mg/mL

SMILES: NCCCCC(N)C(=O)O.O.O.O=P(O)(O)C(O)(Cn1ccnc1)P(=O)(O)O [ZA: DL-Lysine dihydrate]
- Aqueous solubility, Conc. mg/mL [1]: 6.85 mg/mL

SMILES: NCCCCC(N)C(=O)O.O.O=P(O)(O)C(O)(Cn1ccnc1)P(=O)(O)O [ZA: DL-Lysine monohydrate]
- Aqueous solubility, Conc. mg/mL [1]: 13.9 mg/mL

SMILES: NCCCC[C@H](N)C(=O)O.O.O.O=P(O)(O)C(O)(Cn1ccnc1)P(=O)(O)O [ZA: L-Lysine dihydrate]
- Aqueous solubility, Conc. mg/mL [1]: 8.22 mg/mL

SMILES: O=P(O)(O)C(O)(Cn1ccnc1)P(=O)(O)O [Zoledronic acid monohydrate]
- concentration at 0 h ([2]; 0 h): 0 ng/mL
- concentration at 10 min ([2]; 10 min): 0 ng/mL
- concentration at 0.25 h ([2]; 0.25 h): 0 ng/mL
- concentration at 0.5 h ([2]; 0.5 h): 0 ng/mL
- concentration at 0.75 h ([2]; 0.75 h): 0 ng/mL
- concentration at 1 h ([2]; 1 h): 9.84 ng/mL
- concentration at 1.5 h ([2]; 1.5 h): 86.1 ng/mL
- concentration at 2 h ([2]; 2 h): 109 ng/mL
- concentration at 4 h ([2]; 4 h): 108 ng/mL
- concentration at 6 h ([2]; 6 h): 14.2 ng/mL
- concentration at 8 h ([2]; 8 h): 4.57 ng/mL
- concentration at 24 h ([2]; 24 h): 0.5 ng/mL
